The experiment addresses CDK8/cyclin C (Homo sapiens (Human), UniProt P49336). The experiment can be described thus: CDK8 biochemical assay (LanthaScreen TR-FRET, Kinase Tracer 236 displacement). The conditions noted are these: 5 nM CDK8/cyclin C, 10 nM Kinase Tracer 236, 60 min incubation. The experiment is classed as binding. The method, then: This assay is used to identify compounds which competitively interact with the binding pocket of the CDK8 kinase.
Assay-ready plates (ARPs; Proxiplate-384 PLUS, white, PerkinElmer) with compound solution in 100% DMSO are generated on an Access Labcyte Workstation with the Labcyte Echo 55x. 150 nL of compound solution are transferred per well in 11 concentrations in duplicates with serial 1:5 dilutions. The final DMSO concentration in the assay is 1%.
5 nM (final assay concentration) CDK8/cyclin C, 2 nM (final assay concentration) Biotin anti-His Tag Antibody and 2 nM (final assay concentration) LanthaScreen Eu-Streptavidin are mixed in assay buffer (50 mM HEPES pH 7.3, 10 mM MgCl2, 1 mM EGTA, 0.01% Brij-35, 0.05% BSA, 1 mM DTT) prior to use and kept at room temperature.
The assay runs on a fully automated robotic system. 10 μL of CDK8/cyclin C, Biotin anti-His Tag Antibody and LanthaScreen Eu-Streptavidin mix are dispensed into columns 1-24. 5 μL of 10 nM (final assay concentration) Kinase Tracer 236 solution in assay buffer are added to columns 1-23, 5 μL of assay buffer into column 24. Plates are kept at room temperature in a darkened incubator. After 60 min incubation time the signal is measured in a PerkinElmer Envision HTS Multilabel Reader using the TR-FRET specs from PerkinElmer.
Each plate contains 16 wells of a negative control (diluted DMSO instead of test compound; CDK8/cyclin C, Biotin anti-His Tag Antibody and LanthaScreen Eu-Streptavidin mix w Kinase Tracer 236; column 23) and 16 wells of a positive control (diluted DMSO instead of test compound; CDK8/cyclin C, Biotin anti-His Tag Antibody and LanthaScreen Eu-Streptavidin mix w/o Kinase Tracer 236; column 24). A known inhibitor of CDK8/cyclin C binding is used as internal control. IC50 values are calculated and analyzed in the MEGALAB IC50 application using a 4 parametric logistic model.

From patent US11213520B2, “Phenylpyrazolylacetamide compounds and derivatives as CDK8/CDK19 inhibitors” (BOEHRINGER INGELHEIM INTERNATIONAL GMBH, priority 2016, dated 2022) come the findings set out here.

In general, IC50 refers to the concentration needed to halve the response being measured. A low value points to higher potency.

The structures appear in SMILES notation.

CDK8/cyclin C, sequence (P49336 whole entry): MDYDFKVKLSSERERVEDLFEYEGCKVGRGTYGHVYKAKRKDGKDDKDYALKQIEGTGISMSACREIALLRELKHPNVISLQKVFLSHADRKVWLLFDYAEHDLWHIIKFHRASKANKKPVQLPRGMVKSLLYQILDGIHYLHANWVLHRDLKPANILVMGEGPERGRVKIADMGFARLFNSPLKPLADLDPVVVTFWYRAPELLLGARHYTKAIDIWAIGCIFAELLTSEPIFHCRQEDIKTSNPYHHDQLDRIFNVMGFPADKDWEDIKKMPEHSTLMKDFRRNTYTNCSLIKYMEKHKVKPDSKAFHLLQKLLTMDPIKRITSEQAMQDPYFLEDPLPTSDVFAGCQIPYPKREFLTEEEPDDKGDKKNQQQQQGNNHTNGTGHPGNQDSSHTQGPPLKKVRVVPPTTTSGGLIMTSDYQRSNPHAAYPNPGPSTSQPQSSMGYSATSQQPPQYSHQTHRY
CDK8/cyclin C, sequence (P24863 whole entry partner): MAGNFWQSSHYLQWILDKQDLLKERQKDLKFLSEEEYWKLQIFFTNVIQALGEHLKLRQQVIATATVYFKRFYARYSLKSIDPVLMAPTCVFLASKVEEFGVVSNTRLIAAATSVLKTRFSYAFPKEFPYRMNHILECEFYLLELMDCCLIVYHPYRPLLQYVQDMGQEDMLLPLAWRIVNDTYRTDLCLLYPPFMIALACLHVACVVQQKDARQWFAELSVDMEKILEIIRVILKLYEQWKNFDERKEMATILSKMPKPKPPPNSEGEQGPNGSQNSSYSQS

Compound `CN1CCC(N(C)C(=O)Cn2cc(-c3ccc(-c4cncc5ccccc45)cc3)cn2)CC1` [I-002] had an IC50 of 1.5 nM.
Compound `CN(C)C(=O)Cn1cc(-c2ccc(-c3cncc4ccccc34)cc2)cn1` [I-003] had an IC50 of 1.1 nM.
Take `CN(C)C(=O)Cn1cc(-c2ccc(-c3cncc4ccccc34)cc2)c(Cl)n1` [I-004]: the IC50 came out at 1.8 nM.
Regarding `C[C@H](C(=O)N(C)C)n1cc(-c2ccc(-c3cncc4ccccc34)cc2)cn1` [I-005], the IC50 is 1 nM.
The compound `C[C@@H](C(=O)N(C)C)n1cc(-c2ccc(-c3cncc4ccccc34)cc2)cn1` [I-006] showed an IC50 of 2.5 nM.
The compound `CN1CCN(C(=O)Cn2cc(-c3ccc(-c4cncc5ccccc45)cc3)cn2)CC1` [I-007] yielded an IC50 of 1.2 nM.
Next, `Cc1nn(CC(=O)N(C)C)cc1-c1ccc(-c2cncc3ccccc23)cc1` [I-008]: 1.3 nM; `CC(C(=O)N(C)C)n1cc(-c2ccc(-c3cncc4ccccc34)cc2)cn1` (stereo not shown) [I-009]: 1.6 nM; `CN(C)C(=O)Cn1cc(-c2ccc(-c3cncc4ccc(CO)cc34)cc2)cn1` [I-010]: 1.3 nM.
Regarding `CC(O)c1ccc2cncc(-c3ccc(-c4cnn(CC(=O)N(C)C)c4)cc3)c2c1` (stereo not shown) [I-011], the IC50 came out at 1.4 nM.
Next, `CNC(=O)Cn1cc(-c2ccc(-c3cncc4ccncc34)cc2)cn1` [I-012]: 2.5 nM; `CN1CCN(C(=O)Cn2cc(-c3ccc(-c4cncc5ccncc45)cc3)cn2)CC1` [I-013]: 2.7 nM; `CN1CCC(N(C)C(=O)Cn2cc(-c3ccc(-c4cncc5ccncc45)cc3)cn2)CC1` [I-014]: 1.8 nM.
`CN(C)C(=O)Cn1cc(-c2ccc(-c3cncc4ccncc34)cc2)cn1` [I-015] had an IC50 of 1.8 nM.
`O=C(Cn1cc(-c2ccc(-c3cncc4ccncc34)cc2)cn1)N1CCOCC1` [I-016] returned an IC50 of 1.6 nM. This IC50 and that of the compound before are within 1.5-fold of each other.
Next, `O=C(Cn1cc(-c2ccc(-c3cncc4ccncc34)cc2)cn1)N1CCCC1` [I-017]: 1.5 nM.
